Source: ChEMBL document CHEMBL1201862, “PubChem BioAssay data set” (2004)
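Method: 48-hour compound exposure of cells in 96-well plates, five concentrations, linear interpolation of endpoints. Abbreviation: GI50, concentration required for 50% inhibition of growth.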 The source made the active and inactive calls. No stated cut-off is given here; in the data, active = GI50 up to about 1.1 µM and inactive = higher.

Columns and labels:
Test in all cases: NCI anticancer screen, dose series, 48 h
DU-145 = test system: DU-145
U-251 = test system: U-251
HCT-116 = test system: HCT-116
T47D = test system: T47D
OVCAR-5 = test system: OVCAR-5
A549 = test system: A549
SNB-19 = test system: SNB-19
SN12C = test system: SN12C
MCF7 = test system: MCF7
MDA-N = test system: MDA-N
SK-MEL-28 = test system: SK-MEL-28
HOP-92 = test system: HOP-92
MDA-MB-435 = test system: MDA-MB-435
SNB-75 = test system: SNB-75
OVCAR-3 = test system: OVCAR-3
Hs-578T = test system: Hs-578T
UACC-257 = test system: UACC-257
SK-MEL-2 = test system: SK-MEL-2
OVCAR-4 = test system: OVCAR-4
A498 = test system: A498

Row | Structure (SMILES) | GI50 (DU-145) | GI50 (U-251) | GI50 (HCT-116) | GI50 (T47D) | GI50 (OVCAR-5) | GI50 (A549) | GI50 (SNB-19) | GI50 (SN12C) | GI50 (MCF7) | GI50 (MDA-N) | GI50 (SK-MEL-28) | GI50 (HOP-92) | GI50 (MDA-MB-435) | GI50 (SNB-75) | GI50 (OVCAR-3) | GI50 (Hs-578T) | GI50 (UACC-257) | GI50 (SK-MEL-2) | GI50 (OVCAR-4) | GI50 (A498)
1 | CO/N=C/c1c(-c2ccc(Cl)cc2)c(/C=N/OC)n2c1sc1ccccc12 | > 100 µM (inactive) | > 100 µM (inactive) | > 100 µM (inactive) | 21.2 µM (inactive) | > 100 µM (inactive) | > 100 µM (inactive) | > 100 µM (inactive) | > 100 µM (inactive) | > 100 µM (inactive) | > 100 µM (inactive) | > 100 µM (inactive) | 8.49 µM (inactive) | > 100 µM (inactive) | > 100 µM (inactive) | > 100 µM (inactive) | > 100 µM (inactive) | > 100 µM (inactive) | > 100 µM (inactive) | 83 µM (inactive) | –
2 | Cc1ccc(NC(=O)C23CC4CC(CC(C4)C2)C3)c(C(=O)NNC(=O)c2ccc(Cl)cc2)c1 | 27.6 µM (inactive) | 17.2 µM (inactive) | 25.8 µM (inactive) | 18.3 µM (inactive) | 17.3 µM (inactive) | 20 µM (inactive) | 1.41 µM (inactive) | 28.4 µM (inactive) | 17.4 µM (inactive) | 20.2 µM (inactive) | – | 9.48 µM (inactive) | 17.3 µM (inactive) | < 0.01 µM (active) | 20.7 µM (inactive) | 4.3 µM (inactive) | 2.14 µM (inactive) | – | 16.7 µM (inactive) | –
3 | CC(=O)OCC1C(C(C)OC(C)=O)CCC2C1CCC1(C)C(OC(C)=O)CCC21 (configuration not stated) | 83.9 µM (inactive) | 16.6 µM (inactive) | 15.8 µM (inactive) | 24.8 µM (inactive) | 54.6 µM (inactive) | 18.9 µM (inactive) | 20.4 µM (inactive) | 18 µM (inactive) | 19.1 µM (inactive) | 18.6 µM (inactive) | 15.7 µM (inactive) | 17.9 µM (inactive) | 18.7 µM (inactive) | – | 20.5 µM (inactive) | > 10 µM (inactive) | 16.7 µM (inactive) | – | 19.8 µM (inactive) | 19.7 µM (inactive)
4 | c1cncc(CC2(c3cc4ccccc4[nH]3)OCCO2)c1 | > 100 µM (inactive) | > 100 µM (inactive) | > 100 µM (inactive) | > 100 µM (inactive) | – | 81.8 µM (inactive) | > 100 µM (inactive) | > 100 µM (inactive) | > 100 µM (inactive) | > 100 µM (inactive) | > 100 µM (inactive) | > 100 µM (inactive) | > 100 µM (inactive) | > 100 µM (inactive) | – | 96.8 µM (inactive) | 66.5 µM (inactive) | > 100 µM (inactive) | > 100 µM (inactive) | > 100 µM (inactive)
5 | O=C(O)[C@@H]1CSCN1C(=O)[C@@H]1CCC(=S)N1 | > 100 µM (inactive) | – | – | > 100 µM (inactive) | > 100 µM (inactive) | > 100 µM (inactive) | > 100 µM (inactive) | > 100 µM (inactive) | > 100 µM (inactive) | > 100 µM (inactive) | > 100 µM (inactive) | – | > 100 µM (inactive) | > 100 µM (inactive) | > 100 µM (inactive) | > 100 µM (inactive) | > 100 µM (inactive) | > 100 µM (inactive) | – | > 100 µM (inactive)
6 | CC(=O)O[C@H]1C[C@H](O[C@H]2[C@@H](O)C[C@H](O[C@H]3[C@@H](O)C[C@H](O[C@H]4CC[C@@]5(C)[C@H](CC[C@@H]6[C@@H]5C[C@@H](O)[C@]5(C)[C@@H](C7=CC(=O)OC7)CC[C@]65O)C4)O[C@@H]3C)O[C@@H]2C)O[C@H](C)[C@H]1O[C@@H]1O[C@H](CO)[C@@H](O)[C@H](O)[C@H]1O [LANATOSIDE C] | 0.0313 µM (active) | 0.0741 µM (active) | 0.0324 µM (active) | 0.0778 µM (active) | 0.0869 µM (active) | 0.0146 µM (active) | 0.168 µM (active) | – | 0.051 µM (active) | 0.156 µM (active) | 0.303 µM (active) | 0.122 µM (active) | 0.212 µM (active) | 0.167 µM (active) | 0.041 µM (active) | 0.0252 µM (active) | 0.238 µM (active) | 0.165 µM (active) | 0.0465 µM (active) | 0.0897 µM (active)
7 | Cc1cc(-c2ccccc2)nc2oc(=O)n(C)c12 | > 100 µM (inactive) | 51.1 µM (inactive) | 75 µM (inactive) | 94.6 µM (inactive) | > 100 µM (inactive) | > 100 µM (inactive) | > 100 µM (inactive) | 71.8 µM (inactive) | > 100 µM (inactive) | > 100 µM (inactive) | > 100 µM (inactive) | 86.5 µM (inactive) | > 100 µM (inactive) | – | > 100 µM (inactive) | > 100 µM (inactive) | > 100 µM (inactive) | 79.3 µM (inactive) | > 100 µM (inactive) | > 100 µM (inactive)
8 | O=C(/C=C/c1cccc(Br)c1)c1cccs1 | > 10 µM (inactive) | 13.9 µM (inactive) | 5.47 µM (inactive) | 15.3 µM (inactive) | – | 17.4 µM (inactive) | 14.2 µM (inactive) | 14.7 µM (inactive) | 3.44 µM (inactive) | 10.3 µM (inactive) | 18.1 µM (inactive) | – | 11.7 µM (inactive) | 14.6 µM (inactive) | – | 27.9 µM (inactive) | 18.4 µM (inactive) | 17.7 µM (inactive) | 16.5 µM (inactive) | 16.5 µM (inactive)
9 | O=C(Nc1cccc(F)c1)c1cc2ccc(O)cc2o/c1=N\c1ccccc1F | 4.28 µM (inactive) | 3.21 µM (inactive) | 4.03 µM (inactive) | 3.38 µM (inactive) | 17.2 µM (inactive) | 3.38 µM (inactive) | 5.31 µM (inactive) | 5.26 µM (inactive) | 3.33 µM (inactive) | 4.82 µM (inactive) | 4.05 µM (inactive) | – | 3.89 µM (inactive) | – | 3.81 µM (inactive) | 1.57 µM (inactive) | 4.33 µM (inactive) | 4.8 µM (inactive) | 3.56 µM (inactive) | 16.1 µM (inactive)
10 | CCOC(=O)c1sc2nc(SC)nc3c2c1NCN3c1ccc2c(c1)OCCCO2 | > 100 µM (inactive) | 7.57 µM (inactive) | 5.02 µM (inactive) | 68.1 µM (inactive) | > 100 µM (inactive) | 9.48 µM (inactive) | 8.09 µM (inactive) | 49.7 µM (inactive) | > 100 µM (inactive) | > 100 µM (inactive) | 56.1 µM (inactive) | 79.3 µM (inactive) | > 100 µM (inactive) | – | 18.6 µM (inactive) | 2.57 µM (inactive) | > 100 µM (inactive) | > 100 µM (inactive) | > 100 µM (inactive) | 7.98 µM (inactive)
11 | CCOC(=O)CC1(N)CC2c3ccccc3OC(=O)C2C(=O)N1 (configuration not stated) | > 100 µM (inactive) | > 100 µM (inactive) | > 100 µM (inactive) | > 100 µM (inactive) | > 100 µM (inactive) | > 100 µM (inactive) | > 100 µM (inactive) | > 100 µM (inactive) | – | > 100 µM (inactive) | > 100 µM (inactive) | > 100 µM (inactive) | > 100 µM (inactive) | > 100 µM (inactive) | > 100 µM (inactive) | > 100 µM (inactive) | > 100 µM (inactive) | > 100 µM (inactive) | > 100 µM (inactive) | > 100 µM (inactive)
12 | COc1cc(/C=C2\C(=O)N(c3cccc(Cl)c3)C(c3ccccc3)S2(=O)=O)cc(OC)c1OC (configuration not stated) | > 100 µM (inactive) | 73.8 µM (inactive) | 24.1 µM (inactive) | 41.3 µM (inactive) | > 100 µM (inactive) | 70.8 µM (inactive) | 23.7 µM (inactive) | 72.8 µM (inactive) | 33.9 µM (inactive) | 20.8 µM (inactive) | 69.2 µM (inactive) | 30.6 µM (inactive) | 30.5 µM (inactive) | – | 48.8 µM (inactive) | > 100 µM (inactive) | 76 µM (inactive) | > 100 µM (inactive) | 85.5 µM (inactive) | > 100 µM (inactive)
13 | CC(=O)NN(c1ccccc1)C1CCN(c2ccccc2)N1C(C)=O (configuration not stated) | > 10 µM (inactive) | – | 9.84 µM (inactive) | > 10 µM (inactive) | > 10 µM (inactive) | > 10 µM (inactive) | > 10 µM (inactive) | > 10 µM (inactive) | 8.91 µM (inactive) | 9.16 µM (inactive) | > 10 µM (inactive) | – | 3.18 µM (inactive) | > 10 µM (inactive) | > 10 µM (inactive) | > 10 µM (inactive) | > 10 µM (inactive) | > 10 µM (inactive) | > 10 µM (inactive) | –
14 | CCCCCCCCCCCCCCCCOC[C@@H](COC(c1ccccc1)(c1ccccc1)c1ccccc1)O[PH](=S)OC (some centres not stated) | 17 µM (inactive) | 4.04 µM (inactive) | 3.86 µM (inactive) | 16.2 µM (inactive) | 10.8 µM (inactive) | 5.61 µM (inactive) | 4.79 µM (inactive) | 5.32 µM (inactive) | 7.43 µM (inactive) | 2.24 µM (inactive) | – | 12.4 µM (inactive) | 2.24 µM (inactive) | 10.3 µM (inactive) | 13.2 µM (inactive) | 15.5 µM (inactive) | 11.6 µM (inactive) | 11.1 µM (inactive) | 9.35 µM (inactive) | 11.5 µM (inactive)
15 | C(/C=N/N=C1NCCN1)=N\N=C1NCCN1 | – | > 100 µM (inactive) | > 100 µM (inactive) | > 100 µM (inactive) | > 100 µM (inactive) | > 100 µM (inactive) | > 100 µM (inactive) | – | > 100 µM (inactive) | > 100 µM (inactive) | > 100 µM (inactive) | > 100 µM (inactive) | > 100 µM (inactive) | 47.3 µM (inactive) | > 100 µM (inactive) | > 100 µM (inactive) | > 100 µM (inactive) | > 100 µM (inactive) | > 100 µM (inactive) | > 100 µM (inactive)
